Experimental findings from paper PMC6263338, “Synthesis of Some Phenylpropanoid Glycosides (PPGs) and Their Acetylcholinesterase/Xanthine Oxidase Inhibitory Activities” (Molecules, 2011) are described below.

The target in assay [1] is T1, Xanthine Oxidase (from buttermilk) (Bos taurus, UniProt P80457).
T1 construct: Xanthine Oxidase (from buttermilk, Sigma Co., Ltd. X4875); purchased Sigma Co., Ltd. X4875; host or cells: buttermilk
Kind of assay: In vitro XOD inhibitory activity (Xanthine Oxidase Detection Kit). The format is biochemical. The conditions noted are these: for XOD inhibitory activity IC50 (μM): seven concentrations, mean ± SD of triplicate independent experiments, – = not active. How it is done:
(§1) In vitro inhibitory activity test of these glycosides against AChE and XOD was studied by using Acetylcholinesterase Detection Kit and Xanthine Oxidase Detection Kit.
Assay of the in vitro AChE/XOD inhibitory activity: The tests of in vitro inhibitory activity of these PPGs against AChE (from drosophila, Jing Peng Bio-Pesticide Co., Ltd. Shandong, P. R. China) and Xanthine Oxidase (from buttermilk, Sigma Co., Ltd. X4875) were carried out by using AChE (or XOD) Detection Kits (Jian Cheng Bioengineering Institute, Nan Jin, Jiangsu, P. R. China), following the manufacturer’s protocol. All the compounds were dissolved in 1% DMSO. […] If an inhibition of more than 30% was observed, the compound was classified as active. The active compounds were consequently tested at seven concentrations. The results were read on a microplate reader at the wavelength of 450 nm/530 nm. All the assays were performed in triplicate with three independent experiments. The IC50 values were calculated using XLfit software.

Another assay concerns the target T2, AChE (from drosophila) (Drosophila melanogaster, UniProt P07140).
T2 construct: purchased Jing Peng Bio-Pesticide Co., Ltd. Shandong, P. R. China
Kind of assay: In vitro AChE inhibitory activity (Acetylcholinesterase Detection Kit). The format is biochemical. Particulars: for AChE inhibitory activitiy IC50 (μM): seven concentrations, mean ± SD of triplicate independent experiments, – = not active. How it is done:
as §1
Assay of the in vitro AChE/XOD inhibitory activity: The tests of in vitro inhibitory activity of these PPGs against AChE (from drosophila, Jing Peng Bio-Pesticide Co., Ltd. Shandong, P. R. China) and Xanthine Oxidase (from buttermilk, Sigma Co., Ltd. X4875) were carried out by using AChE (or XOD) Detection Kits (Jian Cheng Bioengineering Institute, Nan Jin, Jiangsu, P. R. China), following the manufacturer’s protocol. All the compounds were dissolved in 1% DMSO. […] The results were read on a microplate reader at the wavelength of 450 nm/530 nm. All the assays were performed in triplicate with three independent experiments. The IC50 values were calculated using XLfit software.

Where [2] appears, read: 1.5 mg/mL, compounds in 1% DMSO, mean ± SD, triplicate.

Turning to “4-Trifluoromethycinnamyl β-D-glucopyranoside [Compound 10f]”, the “XOD inhibitory activity % inhibition (1.5 mg/mL)” value in assay [1] (setting [2]) is 5 ± 0.22%. The “XOD inhibitory activity IC50 (μM)” value in assay [1] is reported as “– (not active (less than 30% inhibition at 1.5 mg/mL))”. Moreover, the “AChE inhibitory activitiy % inhibition (1.5 mg/mL)” value on AChE (from drosophila) (setting [2]) stood at 22 ± 2.44%. Further, the “AChE inhibitory activitiy IC50 (μM)” value on AChE (from drosophila) is recorded as “– (not active (less than 30% inhibition at 1.5 mg/mL))”.

With `COc1ccc(C=CCO[C@@H]2O[C@H](CO)[C@@H](O)[C@H](O)[C@H]2O)cc1` [Compound 10a, 4-Methoxycinnamyl β-D-glucopyranoside], the inhibition at 1500 µg/mL in assay [1] (read-out: XOD inhibitory activity % inhibition (1.5 mg/mL)) is 10 ± 2.22%; on AChE (from drosophila) (1.5 mg/mL, compounds in 1% DMSO, mean ± SD, triplicate, read-out: AChE inhibitory activitiy % inhibition (1.5 mg/mL)), 15 ± 3.27%. In addition, the “XOD inhibitory activity IC50 (μM)” value in assay [1] was “– (not active (less than 30% inhibition at 1.5 mg/mL))”. Also, at AChE (from drosophila), the “AChE inhibitory activitiy IC50 (μM)” value was “– (not active (less than 30% inhibition at 1.5 mg/mL))”.
